Laboratory results from patent publication US6521814B1, “Use of ligands for treatment of diseases responsive to retinoids” (Institut National de la Santa et de la Recherche Medicale, priority 1997, dated 2003).

Legend:
RXRα−/− F9 cells [1] = test: Morphological differentiation of F9 cell aggregates into visceral endoderm (VE)-like cells (morphology, RT-PCR of markers); format: cell-based, murine; conditions: 50 nM, 10 d
Description: (§1) Transcript levels were quantified using a BAS 2000 bioimaging analyzer (Fuji Ltd., Tokyo, Japan), and were normalized to the corresponding 36B4 signals.

RXRα−/−/RARα−/− F9 cells [2] = test: as above; format: cell-based, murine; conditions: 50 nM
Description: as §1

RXRα−/−/RARγ−/− F9 cells [3] = test: as above; format: cell-based, murine
Description: as §1

WT F9 cells [4] = test: Proliferation of F9 cells in monolayer culture (cell counting, [3H]thymidine incorporation, cell cycle FACS); format: cell-based, murine; conditions: 1 μM, 5 d
Method: Cells were plated in triplicate 3-cm culture wells (5×10^2 cells per well), and cell counting experiments were performed as previously described (Clifford, J., et al., EMBO J. 15:4142-4155 (1996)). [^3H]Thymidine incorporation assays were performed essentially as described (Clifford, J., et al., EMBO J. 15:4142-4155 (1996)), with the following modifications. […] The cell cycle profile of WT and mutant cells was determined as previously described (Clifford, J., et al. EMBO J. 15:4142-4155 (1996)).

RXRα−/− F9 cells [5] = test: as above; format: cell-based, murine; conditions: 1 μM, 5 d
RXRα−/−/RARα−/− F9 cells [6] = test: as above; format: cell-based, murine; conditions: 1 μM, 5 d
RXRα−/−/RARγ−/− F9 cells [7] = test: as above; format: cell-based, murine; conditions: 1 μM
RARγ−/− F9 cells = test: Apoptosis of F9 cells (Hoechst 33258 staining, FACS); format: cell-based, murine; conditions: 1 μM, 6 d
Method: (§2) Apoptosis was analyzed by both Hoechst staining of nuclei and FACS® analysis, as previously described (Clifford, J., et al., EMBO J. 15:4142-4155 (1996)).

WT F9 cells [8] = test: as above; format: cell-based, murine; conditions: 1 μM
Method: as §2

RARα−/− F9 cells = test: as above; format: cell-based, murine; conditions: 1 μM, 6 d
Method: as §2

RXRα−/−/RARγ−/− F9 cells [9] = test: as above; format: cell-based, murine; conditions: 1 μM, after 5 d
D2R promoter = D2R promoter CAT reporter assay in transfected COS-1 cells, reporter alone; format: cell-based, rat; conditions: C1 reporter-transfected COS-1 cells, no receptor vector; 10^−7 M
Description: Expression Vectors. The C1 reporter construct was obtained by subcloning the HindIII fragment spanning the 5 ′ promoter region of the D2R gene (positions −495 to +273), in the reporter plasmid pBLCAT3 (Luckow, B. & Schütz, G., Nucleic Acids Res. 15:5490 (1987)). The C2 reporter plasmid was constructed by subcloning the SmaI-XhoI fragment (positions −76 to +273) in the same position. The C3 and C4 reporters were generated by cloning a 29 bp synthetic oligonucleotide corresponding, respectively, to the natural rat D2R RARE sequence and the mutated one into pBLCAT2 (Luckow, B. & Schütz, G., Nucleic Acids Res. 15:5490 (1987)). The polylinker in pBLCAT2 is located upstream of the herpes simplex virus 1 (HSV1) thymidine kinase (TK) promoter, from position −105 to +51. To measure transfection efficiency the plasmid pCH110 carrying the β-galactosidase gene (Pharmacia) was used. Mouse […], as well as mouse RXRα, β and γ expression vectors were derived from the parental pSG5 vector (Green, S., et al., Nucleic Acids Res. 16:369 (1988)).
COS-1 cells were used for transient transfection assays. Cells were grown in Dulbecco's modified Eagle's medium supplemented with 5% fetal calf serum.
Several hours before transfection, the medium was replaced with fresh medium containing 5% charcoal-treated FCS. […]

RARα = molecular target: T1, RARα (Mus musculus, UniProt P11416); test: D2R promoter CAT reporter assay in COS-1 cells cotransfected with RARα expression vector; format: cell-based; conditions: 0.1 μM
T1 construct: expressed in transfected cells; host or cells: COS-1
T1 sequence (P11416 1-462): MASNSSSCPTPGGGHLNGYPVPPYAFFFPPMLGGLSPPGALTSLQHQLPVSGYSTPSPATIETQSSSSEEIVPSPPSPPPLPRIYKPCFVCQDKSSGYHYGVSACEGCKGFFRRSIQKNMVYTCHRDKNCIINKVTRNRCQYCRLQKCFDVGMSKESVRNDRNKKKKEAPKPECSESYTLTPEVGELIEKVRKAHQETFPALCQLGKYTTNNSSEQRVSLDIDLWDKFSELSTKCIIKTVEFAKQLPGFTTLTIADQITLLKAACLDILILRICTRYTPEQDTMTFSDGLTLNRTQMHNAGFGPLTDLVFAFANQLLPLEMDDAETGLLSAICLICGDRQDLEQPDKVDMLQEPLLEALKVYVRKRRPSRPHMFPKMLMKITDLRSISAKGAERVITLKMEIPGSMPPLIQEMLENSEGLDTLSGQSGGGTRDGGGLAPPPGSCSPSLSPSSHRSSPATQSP
Description: The C1 reporter construct was obtained by subcloning the HindIII fragment spanning the 5 ′ promoter region of the D2R gene (positions −495 to +273), in the reporter plasmid pBLCAT3 (Luckow, B. & Schütz, G., Nucleic Acids Res. 15:5490 (1987)). The C2 reporter plasmid was constructed by subcloning the SmaI-XhoI fragment (positions −76 to +273) in the same position. The C3 and C4 reporters were generated by cloning a 29 bp synthetic oligonucleotide corresponding, respectively, to the natural rat D2R RARE sequence and the mutated one into pBLCAT2 (Luckow, B. & Schütz, G., Nucleic Acids Res. 15:5490 (1987)). The polylinker in pBLCAT2 is located upstream of the herpes simplex virus 1 (HSV1) thymidine kinase (TK) promoter, from position −105 to +51. To measure transfection efficiency the plasmid pCH110 carrying the β-galactosidase gene (Pharmacia) was used. Mouse RARβ, β and γ, as well as mouse RXRα, β and γ expression vectors were derived from the parental pSG5 vector (Green, S., et al., Nucleic Acids Res. 16:369 (1988)).

increase of CAT activity (RARα; C1 reporter + RARα expression vector): 16 fold | increase of CAT activity (RARα; C2 reporter + RARα expression vector): 35 fold
Structure (SMILES): CC1=C(/C=C/C(C)=C/C=C/C(C)=C/C(=O)O)C(C)(C)CCC1 [tRA, all-trans retinoic acid]
proportion of outer layer of cells displaying VE morphology (RXRα−/− F9 cells [1]): +++ (more than 80%) | induction of collagen type IVα1, laminin B1 and AFP mRNA (RXRα−/−/RARα−/− F9 cells [2]; RXRα−/−/RARα−/− aggregates, 10 d): similarly induced | proportion of outer layer of cells displaying VE morphology (RXRα−/−/RARα−/− F9 cells [2]; RXRα−/−/RARα−/−, 10 d): +++ (more than 80%) | outer layer of cell aggregates differentiated into VE-like cells (RXRα−/−/RARα−/− F9 cells [2]; RXRα−/−/RARα−/−, after 10 d): > 80% | induction of collagen IVα1, laminin B1 or AFP mRNA (RXRα−/−/RARγ−/− F9 cells [3]; RXRα−/−/RARγ−/− aggregates, 50 nM, 10 d): no induction | surface of the aggregates (RXRα−/−/RARγ−/− F9 cells [3]; RXRα−/−/RARγ−/−, 50 nM, after 10 days): as smooth after 10 days of treatment as in untreated controls | aggregates displaying only a spotty VE conversion (RXRα−/−/RARγ−/− F9 cells [3]; RXRα−/−/RARγ−/−, after 12 or 18 d of treatment): < 10% | proportion of cells in the G0 and G1 phases (FACS) (WT F9 cells [4]): 71% | proportion of cells in the G0 and G1 phases (FACS) (RXRα−/− F9 cells [5]): 38% | proportion of cells in the G0 and G1 phases (FACS) (RXRα−/−/RARα−/− F9 cells [6]): 40% | inhibition of [3H]thymidine incorporation (RXRα−/−/RARγ−/− F9 cells [7]; 4 d): no inhibition | cell cycle profile (FACS) (RXRα−/−/RARγ−/− F9 cells [7]; 5 d): not significantly affected | effect on number of cells (cell counting) (RXRα−/−/RARγ−/− F9 cells [7]; 6 d): did not reduce, but slightly increased | proportion of apoptotic nuclei and subcellular fragments (Hoechst 33258) (RARγ−/− F9 cells): + (>1-10%) | proportion of apoptotic nuclei and subcellular fragments (Hoechst 33258) (WT F9 cells [8]; 6 d): ++ (>10%) | sub-2N size DNA-containing particles ('apoptotic bodies'), FACS (WT F9 cells [8]; after 5 d): appeared | proportion of apoptotic nuclei and subcellular fragments (Hoechst 33258) (RARα−/− F9 cells): ++ (>10%) | sub-2N size DNA-containing particles ('apoptotic bodies'), FACS (RXRα−/−/RARγ−/− F9 cells [9]): not detected | changes in CAT activity (D2R promoter): no significant changes
